These results are taken from PMC9103184, “Kunitz-Type Peptides from Sea Anemones Protect Neuronal Cells against Parkinson’s Disease Inductors via Inhibition of ROS Production and ATP-Induced P2X7 Receptor Activation” (International Journal of Molecular Sciences, 2022).

pKi: −log10 of the molar value. Bridge positions count the residues as written; N and C are the ends. Ends that are not written are not given here.

The target of test [1] is T1, trypsin (Bos taurus, UniProt P00760).
T1 sequence (P00760 24-246): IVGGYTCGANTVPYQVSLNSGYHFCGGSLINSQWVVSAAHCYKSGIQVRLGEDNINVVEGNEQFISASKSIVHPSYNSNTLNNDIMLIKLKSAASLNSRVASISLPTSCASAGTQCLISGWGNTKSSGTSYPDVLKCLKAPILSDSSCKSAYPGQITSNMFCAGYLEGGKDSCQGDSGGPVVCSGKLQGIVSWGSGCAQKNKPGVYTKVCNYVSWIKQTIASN
The experiment in a line: Trypsin inhibition (BAPNA substrate, Dixon's method). The test is classed as biochemical. The following applies: BAPNA 0.6 and 1.2 mM, trypsin 208 nM, peptide 0–20 μM, three parallel experiments, read-out: trypsin inhibitory constant (Ki). On the procedure:
The trypsin-inhibitory activity of HCIQ1c9 was estimated according to the standard procedure using N-α-benzoyl-D,L-arginine p-nitroanilide (BAPNA) (Sigma-Aldrich, St. Louis, MO, USA) as a substrate. The trypsin inhibition constant was determined using Dyxon’s method using substrate concentrations of 0.6 and 1.2 mM. The trypsin concentration was 208 nM. The range of peptide concentrations was 0–20 μM. The constant was calculated based on the results of three parallel experiments. Computational error limits were in the range of 0.1–0.3%.

Test [2] concerns the target T1, trypsin. The experiment in a line: Residual trypsin-inhibitory activity after heating. The test is classed as biochemical. The following applies: heating in the range from 60 °C to 100 °C; 7 μM peptide, 1.2 mM BAPNA, 37 °C, three parallel experiments. As to the method:
Figure 6 The effects of temperature on the trypsin-inhibitory activity levels of peptides. Peptides were incubated at the temperatures for 30 min and their residual activities were measured.
The temperature influence on the activity levels of peptides was assessed by measuring their residual inhibitory activity levels. After preincubation at temperatures ranging from 25 to 100 °C for 25 min, the peptide solutions were added to trypsin solution and the reaction mixtures were incubated for 10 min at 37 °C, then 1.2 mM BAPNA was added, followed by incubation at 37 °C for 30 min. The final concentration of the peptides was 7 μM. Substrate hydrolysis was measured at 410 nm. The residual activity was calculated based on the results of three parallel experiments according to the following equation [60]:% = (1 − residual enzyme activity/enzyme activity without inhibitor) × 100

Another test deals with TRPV1. The conditions noted are these: cited from earlier work.
For a further test, the system named is 6-OHDA-treated cells. The following applies: 6-OHDA model; cited from earlier work.

As a reminder, the pKi is the Ki on a negative log10 scale, so that one unit is a factor of ten. “IQGNICSEPKKVGRCRRSFPRFYFDSETGKCTPFIYGGCGGNGNNFETLHACRAICRA (disulfide 6-56, 15-39, 31-52) [HCIQ1c9]”: the negative-log Ki (pKi) on trypsin [1] is 6.20. Moreover, the “decrease in trypsin-inhibitory activity after heating” value on trypsin [2] is given as 30–70%.
Consider “HCRG21: Kunitz-type peptide from H. crispa, P0DL86; blocker of TRPV1 (RGICSEPKVVGPCTAYFRRFYFDSETGKCTPFIYGGCEGNGNNFETLRACRAICRA; UniProt P0DL86 1-56, looked up)”, for which the “activity on TRPV1” value in the test on TRPV1 is listed as “blocker of TRPV1”. Moreover, the “decrease in ROS production below the control” value in the test on 6-OHDA-treated cells is on record as “up to 87%”.
